{"source": "ChEMBL document CHEMBL5120800", "about": "“Lathyrane and Jatrophane Diterpenoids from Euphorbia helioscopia Evaluated for Cytotoxicity against a Paclitaxel-Resistant A549 Human Lung Cancer Cell Line” (J Nat Prod, 2022)", "key": {"[1]": {"experiment": "Cytotoxicity against human A549/PTX cells assessed as inhibition of cell growth incubated for 72 hrs by MTT assay", "type": "functional, cell-based"}, "A549": {"tested_on": "A549", "experiment": "Cytotoxicity against human A549 cells assessed as inhibition of cell growth incubated for 72 hrs by MTT assay", "type": "functional, cell-based", "details": "A549, 72 h"}}, "data": [{"smiles": "CC(=O)O[C@]12C[C@@H](C)[C@H](OC(=O)c3ccccc3)[C@@H]1/C=C(\\C)[C@H](OC(=O)c1ccccc1)CC(=O)C(C)(C)/C=C/[C@@H](C)C2=O", "values": [{"measurement": "IC50", "setting": "[1]", "value": 7.2, "unit": "µM"}, {"measurement": "IC50", "setting": "A549", "value": "> 10", "unit": "µM"}]}, {"smiles": "CC(=O)O[C@@H]1[C@H](C)/C=C/C(C)(C)C(=O)C[C@@H](OC(=O)c2cccnc2)/C(C)=C/[C@H]2[C@@H](OC(=O)c3ccccc3)[C@H](C)C[C@]12OC(C)=O", "values": [{"measurement": "IC50", "setting": "[1]", "value": 9.5, "unit": "µM"}, {"measurement": "IC50", "setting": "A549", "value": "> 10", "unit": "µM"}]}, {"smiles": "CC(=O)O[C@@H]1[C@H](C)/C=C/C(C)(C)C(=O)C[C@@H](OC(=O)c2ccccc2)/C(C)=C/[C@H]2[C@@H](OC(=O)c3ccccc3)[C@H](C)C[C@]12OC(C)=O", "note": "[EUPHOSCOPIN C]", "values": [{"measurement": "IC50", "setting": "[1]", "value": 6.9, "unit": "µM"}, {"measurement": "IC50", "setting": "A549", "value": "> 10", "unit": "µM"}]}, {"smiles": "CC(=O)O[C@H]1C(=O)[C@@]2(C)[C@H]([C@H](OC(=O)c3ccccc3)[C@]3(O)C[C@H](OC(=O)[C@H](O)[C@@H](NC(=O)c4ccccc4)c4ccccc4)C(C)=C1C3(C)C)[C@]1(OC(C)=O)CO[C@@H]1C[C@@H]2O", "note": "[PACLITAXEL]", "values": [{"measurement": "IC50", "setting": "A549", "value": 0.0675, "unit": "µM"}]}]}
